15 molecules from patent publication US20140303182A1, “PHARMACEUTICALLY ACCEPTABLE SALTS OF QUINOLINONE COMPOUNDS HAVING IMPROVED PHARMACEUTICAL PROPERTIES” (NOVARTIS AG, priority 2003, published 2014) can be followed below.

Structures can show the parent of a compound that is named as a salt. Where two headings read alike, the source gives them in different places.

One data set is described as follows: Crystallinity by XRPD. The data set is classed as physicochemical. As for the experimental part:
XRPD analyses were carried out on a Shimadzu XRD-6000 X-ray powder diffractometer using Cu Kα radiation. The instrument is equipped with a fine focus X-ray tube. The tube voltage and amperage were set to 40 kV and 40 mA, respectively. The divergence and scattering slits were set at 1° and the receiving slit was set at 0.15 mm. Diffracted radiation was detected by a NaI scintillation detector. A theta-two theta continuous scan at 3°/minute (0.4 seconds/0.02° step) from […] was used.

Data set [1] can be described thus: Aqueous equilibrium solubility and pH at saturation. The data set is classed as physicochemical. The conditions noted are these: water, 24 hours at 22° C., HPLC, free base equivalent.
Data set [2] in a line: Chemical stability, solid state (HPLC). The settings on record: solid state.
Where [3] appears, read: 30° C./60% Relative humidity, listed as Sulphate.
Where [4] appears, read: 40° C./70% Relative humidity, listed as Sulphate.

Consider `CN1CCN(c2ccc3nc(-c4c(N)c5c(F)cccc5[nH]c4=O)[nH]c3c2)CC1` [Bis-Acetate, 4-Amino-5-fluoro-3-[6-(4-methylpiperazin-1-yl)-1H-benzimidazol-2-yl]-1H-quinolin-2-one], for which the Crystallinity entry in “Crystallinity by XRPD” was “mixture of crystalline”; in “Crystallinity by XRPD” (listed as bis-acetate), “mixture of crystalline and amorphous material”. The Solubility in data set [1] is 31.9 mg FB/mL.
`CN1CCN(c2ccc3nc(-c4c(N)c5c(F)cccc5[nH]c4=O)[nH]c3c2)CC1` [Bis-Glycinate, 4-Amino-5-fluoro-3-[6-(4-methylpiperazin-1-yl)-1H-benzimidazol-2-yl]-1H-quinolin-2-one]: the Solubility in data set [1] is recorded as 0.11 mg FB/mL.
On to `CN1CCN(c2ccc3nc(-c4c(N)c5c(F)cccc5[nH]c4=O)[nH]c3c2)CC1` [Bis-Lactate, 4-Amino-5-fluoro-3-[6-(4-methylpiperazin-1-yl)-1H-benzimidazol-2-yl]-1H-quinolin-2-one], for which the Crystallinity result in “Crystallinity by XRPD” is “mixture of crystalline”; in the data set “Crystallinity by XRPD” (listed as bis-lactate), “mixture of crystalline and amorphous material”. Moreover, in data set [1], the Solubility came to 304 mg FB/mL. The “Area % at Time = 0” value in data set [2] (30° C./60% Relative humidity) is recorded as 98.71 Area %; in data set [2] (40° C./70% Relative humidity) it was 98.99 Area %. For the same molecule, the figures for the “Area % at Time = 6 weeks” value in data set [2] (30° C./60% Relative humidity) and in data set [2] (40° C./70% Relative humidity) were 98.64 Area % and 97.92 Area %, respectively.
On to `CN1CCN(c2ccc3nc(-c4c(N)c5c(F)cccc5[nH]c4=O)[nH]c3c2)CC1` [Bis-mesylate, 4-Amino-5-fluoro-3-[6-(4-methylpiperazin-1-yl)-1H-benzimidazol-2-yl]-1H-quinolin-2-one], for which the Crystallinity entry in “Crystallinity by XRPD” was “mixture of crystalline”; in the data set “Crystallinity by XRPD” (listed as bis-mesylate) it was “crystalline”. Also, the “Area % at Time = 0” value in data set [2] (30° C./60% Relative humidity) is 99.01 Area %; in data set [2] (40° C./70% Relative humidity), 98.78 Area %. Also, the “Area % at Time = 6 weeks” value was 98.12 Area % in data set [2] (30° C./60% Relative humidity) and 98.35 Area % in data set [2] (40° C./70% Relative humidity).
Turning to `CN1CCN(c2ccc3nc(-c4c(N)c5c(F)cccc5[nH]c4=O)[nH]c3c2)CC1` [BisHCl, 4-Amino-5-fluoro-3-[6-(4-methylpiperazin-1-yl)-1H-benzimidazol-2-yl]-1H-quinolin-2-one], in data set [1], the Solubility is listed as 42 mg FB/mL.
Same read-out and setting: for `CN1CCN(c2ccc3nc(-c4c(N)c5c(F)cccc5[nH]c4=O)[nH]c3c2)CC1` [Glycinate, 4-Amino-5-fluoro-3-[6-(4-methylpiperazin-1-yl)-1H-benzimidazol-2-yl]-1H-quinolin-2-one] the value was 0.0638 mg FB/mL.
As to `CN1CCN(c2ccc3nc(-c4c(N)c5c(F)cccc5[nH]c4=O)[nH]c3c2)CC1` [Hemi-malate, 4-Amino-5-fluoro-3-[6-(4-methylpiperazin-1-yl)-1H-benzimidazol-2-yl]-1H-quinolin-2-one], in “Crystallinity by XRPD”, the Crystallinity entry is recorded as “crystalline”. Moreover, in data set [1], the Solubility is 6.39 mg FB/mL.
Turning to `CN1CCN(c2ccc3nc(-c4c(N)c5c(F)cccc5[nH]c4=O)[nH]c3c2)CC1` [Hydrochloride, 4-Amino-5-fluoro-3-[6-(4-methylpiperazin-1-yl)-1H-benzimidazol-2-yl]-1H-quinolin-2-one], in data set [1], the Solubility is given as 26.3 mg FB/mL.
On the same count and under the same terms, the value for `CN1CCN(c2ccc3nc(-c4c(N)c5c(F)cccc5[nH]c4=O)[nH]c3c2)CC1` [Maleate, 4-Amino-5-fluoro-3-[6-(4-methylpiperazin-1-yl)-1H-benzimidazol-2-yl]-1H-quinolin-2-one] was 0.866 mg FB/mL.
With `CN1CCN(c2ccc3nc(-c4c(N)c5c(F)cccc5[nH]c4=O)[nH]c3c2)CC1` [Mono-acetate, 4-Amino-5-fluoro-3-[6-(4-methylpiperazin-1-yl)-1H-benzimidazol-2-yl]-1H-quinolin-2-one], the Crystallinity result in the data set “Crystallinity by XRPD” was “amorphous”; in the data set “Crystallinity by XRPD” (listed as Acetate), “mixture of crystalline”; in “Crystallinity by XRPD” (listed as acetate salt), “amorphous”. The Solubility in data set [1] turned out to be 84.4 mg FB/mL; in data set [1] (listed as Acetate), 15.4 mg FB/mL.
On to `CN1CCN(c2ccc3nc(-c4c(N)c5c(F)cccc5[nH]c4=O)[nH]c3c2)CC1` [Mono-citrate, 4-Amino-5-fluoro-3-[6-(4-methylpiperazin-1-yl)-1H-benzimidazol-2-yl]-1H-quinolin-2-one], for which the Crystallinity entry in the data set “Crystallinity by XRPD” and in “Crystallinity by XRPD” (listed as citrate) was “crystalline” in each case. In addition, the Solubility in data set [1] was determined as 0.456 mg FB/mL; in data set [1] (listed as Citrate), 27.2 mg FB/mL.
As for `CN1CCN(c2ccc3nc(-c4c(N)c5c(F)cccc5[nH]c4=O)[nH]c3c2)CC1` [Mono-tartrate, 4-Amino-5-fluoro-3-[6-(4-methylpiperazin-1-yl)-1H-benzimidazol-2-yl]-1H-quinolin-2-one], the Crystallinity entry in the data set “Crystallinity by XRPD” was “crystalline”; in the data set “Crystallinity by XRPD” (listed as L-Tartrate) it was “mixture of crystalline”; in “Crystallinity by XRPD” (listed as L-tartrate) it was “mixture of crystalline and amorphous material”. Also, the Solubility in data set [1] (listed as L-Tartrate) is given as 103.4 mg FB/mL.
`CN1CCN(c2ccc3nc(-c4c(N)c5c(F)cccc5[nH]c4=O)[nH]c3c2)CC1` [Nitrate, 4-Amino-5-fluoro-3-[6-(4-methylpiperazin-1-yl)-1H-benzimidazol-2-yl]-1H-quinolin-2-one]: the Solubility in data set [1] is listed as 6.7 mg FB/mL.
On to `CN1CCN(c2ccc3nc(-c4c(N)c5c(F)cccc5[nH]c4=O)[nH]c3c2)CC1` [Phosphate, 4-Amino-5-fluoro-3-[6-(4-methylpiperazin-1-yl)-1H-benzimidazol-2-yl]-1H-quinolin-2-one], for which the Crystallinity result is “mixture of crystalline” in “Crystallinity by XRPD”; “mixture of crystalline and amorphous material” in the data set “Crystallinity by XRPD” (listed as phosphate). Moreover, the Solubility in data set [1] came out at 13.8 mg FB/mL. Moreover, the figures for the “Area % at Time = 0” value in data set [2] (30° C./60% Relative humidity) and in data set [2] (40° C./70% Relative humidity) were 98.47 Area % and 98.84 Area %, respectively. For the same molecule, the entries for the “Area % at Time = 6 weeks” value in data set [2] (30° C./60% Relative humidity) and in data set [2] (40° C./70% Relative humidity) were 99.28 Area % and 98.86 Area %, respectively.
Regarding `CN1CCN(c2ccc3nc(-c4c(N)c5c(F)cccc5[nH]c4=O)[nH]c3c2)CC1` [Sulfate, 4-Amino-5-fluoro-3-[6-(4-methylpiperazin-1-yl)-1H-benzimidazol-2-yl]-1H-quinolin-2-one], the Crystallinity entry is “mixture of crystalline” in “Crystallinity by XRPD”; “mixture of crystalline and amorphous material” in the data set “Crystallinity by XRPD” (listed as sulfate). In data set [1], the Solubility came out at 19.7 mg FB/mL. Also, the entries for the “Area % at Time = 0” value in data set [2] (setting [3]) and in data set [2] (setting [4]) were 98.75 Area % and 98.96 Area %, respectively. Also, the “Area % at Time = 6 weeks” value was determined as 99.39 Area % in data set [2] (setting [3]) and 98.9 Area % in data set [2] (setting [4]).
